A short description of this data set: wn = mass fraction of the nth substance listed. As to conditions: 101.3 kPa, Liquid, Pycnometric method.

The structures appear in SMILES notation. Numbers after ± are expanded uncertainties.

Broadly, the mass density is the mass of a sample divided by its volume.

Take `O=Cc1ccc2ccccc2c1` [β-naphthaldehyde] + C1COCCO1: the mass density (283.15 K, w1 = 0.3211) worked out at 1049 ± 14 kg/m3; the mass density (293.15 K, w1 = 0.4232) came to 1056 ± 14 kg/m3; the mass density (303.15 K, w1 = 0.5289) was 1063 ± 14 kg/m3.
As to `O=C1OC(=O)c2ccccc21` [isobenzofuran-1,3-dione] + C1COCCO1, the mass density (283.15 K, w1 = 0.08506) came to 1034 ± 14 kg/m3; the mass density (293.15 K, w1 = 0.1354) is listed as 1051 ± 14 kg/m3; the mass density (303.15 K, w1 = 0.21) amounted to 1061 ± 14 kg/m3.

(Values after the NIST ThermoML archive (doi:10.1016/j.jct.2016.06.011).)
